# Results published in patent US10363229B2, “Methods and compositions for the treatment of cancer” (priority 2009, dated 2019).
# Key:
# [1] = system: Cloudman S-91 mouse melanoma cells (sub-clone M-3); assay: Annexin V-FITC/propidium iodide apoptosis assay in melanoma cells; type: cell-based
# Procedure: (§1) Cloudman S-91 mouse melanoma cells (sub-clone M-3, CCL 53.1; American Type Culture Collection, Rockville, Md.) were grown in RMPI medium supplemented with 10% fetal bovine serum (Invitrogen, Inc) and 5% penicillin-streptomycin (Invitrogen, Inc). Mouse breast cancer cells (66Cl-1; American Type Culture Collection, Rockville, Md.) that are estrogen-receptor negative were grown in DMEM medium supplemented with 10% fetal bovine serum (Invitrogen, Inc) and 5% penicillin/streptomycin (Invitrogen, Inc). Human T-cell leukemic lymphocytes (CEM; American Type Culture Collection, Rockville, Md.) were grown in MEM medium supplemented with 7% fetal calf serum. Cultures were passaged twice a week.
# Early and late apoptosis was assessed with the Annexin V-FITC Apoptosis Detection Kit from PharMingen (Becton-Dickinson, San Diego, Calif.). Images were obtained at the Center for Cell Analysis and Modeling, University of Connecticut Health Center, Farmington, Conn., with an Axioplan CCD Microscope equipped with a 40×1.3 NA FL objective lens and Photometrics PXL-EEV37 high speed digital cooled CCD camera via Metamorph image acquisition and analysis software (Universal Imaging Corp., Downington, Pa.).
# (§2) M3 Cloudman melanoma cells were plated into culture dishes containing RPMI medium. After 24 hour media was changed to control medium (no drug) or to media containing different concentrations of methyl sulfone (1-10% methyl sulfone in RPMI medium). Cells were examined by live cell video microscopy immediately after adding drug and every 24 hours up to 144 hours.
# Briefly, melanoma cells (Cloudman M3 cell line) were plated at 10^5 cells/ml in RPMI medium. After 24 hours, medium was replaced with RPMI containing different concentrations (grams/volume) of MMS, MES and EES. After 24 hours, apoptosis was assayed using the Becton-Dickinson Annexin V-FITC/Propidium Iodide Kit and a Nikon fluorescent microscope as described by the manufacturer.
# [2] = system: M3 Cloudman melanoma cells; assay: Live cell video microscopy of melanoma cells (morphology, contact inhibition); type: cell-based, mouse
# Procedure: as §1
# Cells were plated on 35 mm tissue culture dishes at concentration of 10^5 cells/plate, unless stated otherwise, and incubated at 37° C., 5% CO2. After 24 hours, methyl sulfone (0-10% in medium) was added to appropriate plates and immediately videotaped with a Nikon TE300 inverted microscope equipped with a 10×0.25 NA Plan Achromat objective lens. Control cells (no drug) were videotaped as described above. Time series (10 min) of phase contrast images were acquired at a video rate of 1 frame/5 s with a Watec-902B CCD video camera (Watec Corp., Japan) via the stream acquisition option of Metamorph image acquisition and analysis software (Universal Imaging Corp., Downington, Pa.). During recordings, cells were kept at 37° C. with 10 mM Hepes, pH 7.4. Time series of cells +/−2% methyl sulfone were obtained every 24-48 hours for up to 6 weeks.
# as §2
# The possibility that the data generated from treating cells with methyl sulfone was a nonspecific effect due to changes in extracellular osmolarity was considered. To test this possibility an equimolar concentration of urea was substituted for 2% methyl sulfone; urea has a chemical structure and dipolar moment that is similar to methyl sulfone. […] We next replaced 2% methyl sulfone with an equimolar concentration of dimethyl sulfoxide (DMSO).
# [3] = system: melanoma cells; assay: Soft agar assay for colony formation; type: cell-based, mouse; conditions: 2% methyl sulfone; control hundreds of colonies
# Procedure: Cells were plated on 8-35 mm plates that contained base agar with and without 2% methyl sulfone. To make base agar, 1% agar (DNA grade; Difco Bacto Agar; Becton Dickenson and Company, Sparks, Md.), was mixed in water at room temperature, melted in a microwave, and cooled to 40° C. before using. For drug plates, 1% agar was combined (1:1) with 4% methyl sulfone in 2×RPMI medium with sodium bicarbonate supplemented with 10% FBS and 5% penicillin/streptomycin. For control plates, 1% agar was combined (1:1) with 2×RMPI medium. Agar +/−2% methyl sulfone was added to appropriate 35 mm tissue culture plates and stored overnight at 4° C. The next day top agar and cells were placed on top of the base agar. Top agar was made with 0.66% agar in water. The agar was melted in a microwave, cooled, and stored at 40° C. 2×RPMI medium and 4% methyl sulfone was also stored at 40° C. Cells were trypsinized and counted for a final concentration of 5×10^3 cells/plate. Cell counts were adjusted to 2×10^5 cells/ml and 0.05 ml of the cell suspension was added to 15 ml centrifuge tubes (2 each). Base agar plates were removed from 4° C. and allowed to warm to room temperature for approximately 30 minutes prior to plating. […] Colonies were photographed and counted with a dissecting microscope. […]
# [4] = system: melanoma cells; assay: Cell wounding / wound healing; type: cell-based, mouse; conditions: 2% methyl sulfone
# Procedure: Cells were cultured to approximately 90% confluence in 35 mm tissue culture plates. Methyl sulfone (2%) was added to half the plates and 48 hours later cells were wounded with a sterile plastic 1000 μl pipette tip. Cells were washed two times with medium to remove cell debris and incubated at 37° C. over night in RMPI medium +/−2% methyl sulfone. After 72 hours, wound edges were photographed and recorded with a Nikon TE300 inverted microscope (Nikon) equipped with a 10×0.25 NA Plan Achromat objective lens. Time-series (5 min long) of phase contrast images were acquired at a video rate (1 frame/3s) with a Watec-902B CCD video camera (Watec Corp., Japan) via stream acquisition option of Metamorph image acquisition and analysis software (Universal Imaging Corp., Downington, Pa.). During the recordings, cells were kept at 37° C. and 10 mM Hepes. Time series and photographs of cells +/−2% methyl sulfone were obtained every 24 hours for up to 120 hrs.
# We tested whether melanoma cells treated with 2% methyl sulfone would function properly in the process of wound healing. As described in herein, control melanoma cells and cells treated with 2% methyl sulfone were grown to confluence. Scraping a layer of confluent cells with a plastic pipette tip formed wounds. Live cell video microscopy was used to monitor migration of cells into the wound.
substance,measurement,setting,value
methyl sulfone,apoptosis of melanoma cells,"[1]; 6% methyl sulfone, 24 hours",induced into apoptosis
same,apoptosis of M3 cells compared with MES or EES,"[1]; 24 hours, especially at less than 5%",significantly less apoptosis
same,window of concentrations between killing cancer cells and harming normal cells,[1]; conclusion from FIGS. 16 and 17,wide window
same,methyl sulfone concentration at which melanoma cells became apoptotic,"[1]; melanoma cells, FIG. 1 legend",over 2%
same,contact inhibition,"[2]; 2% methyl sulfone, by 24 hours",contact inhibited
same,cell morphology after re-attachment,"[2]; 2% methyl sulfone, over the next few hours",flattened morphology
same,morphology immediately after adding drug,[2]; all concentrations (1-10% in RPMI medium),cells became round with some cells detaching from culture plates
same,colony formation on soft agar (anchorage-independent growth),[3],no colony formation
same,behaviour when the wound was covered,[4],stopped migrating and once again became contact inhibited
same,rate of migration into the wound area,[4],slower rate than control cells
